Data: patent EP4772500A1, “NOVEL ISOXAZOLE COMPOUND AS TM4SF5-SPECIFIC INHIBITOR AND USE THEREOF” (Seoul National University R&DB Foundation, priority 2023, dated 2025)

Tested on: TM4SF5-non-expressing cells (SNU449Cp)
Assay: Western blotting for signaling factor phosphorylation in TM4SF5-non-expressing cells
Type: cell-based, human
Procedure: Cell extracts were obtained from cells grown to a density of 70-80% without any treatment, or from cells treated with vehicle DMSO or drugs at the given concentrations for 24 hours. For the extract of hepatocytes or liver cancer cells, a lysis buffer (150 mM NaCl, 1% NP-40, 50 mM Tris-HCl, 0.25% sodium deoxycholate, pH 7.4) including a protease inhibitor cocktail (GenDEPOT) was used. In addition, after washing animal liver tissue twice with PBS, SDS, Na3VO4, and protease inhibitor cocktails (GenDEPOT) were added to a lysis buffer [50 mM Tris-HCl, pH 7.4, 1% NP40, 0.25% sodium deoxycholate, 150 mM NaCl, 1 mM EDTA (based on 500 ml)], followed by treatment at 4°C for 15 minutes. After centrifugation at 13,000 rpm at 4°C for 30 minutes, only the supernatant was transferred to a new microcentrifuge tube. After quantification using BCA reagent (Thermo Scientific), a 4 × sample buffer [100% glycerol 4 ml, Tris-HCl, pH 6.8, 2.4 ml, SDS 0.8 g, Bromophenol blue 4 mg, betamercaptoethanol 0.4 ml, H2O 3.1 ml (based on 10 ml)] was added, followed by boiling at 100°C for 5 minutes. After performing SDS-PAGE electrophoresis with the above samples and transferring them to Nitrocellulose Membranes Protran™ nitrocellulose membranes (Whatman), pre-treatment was performed with 5% skim milk for 1 hour. After pre-treatment, primary antibodies of p-FAK(Y861) (SC-16663), p-FAK(Y577) (SC-16665), c-Src (SC-8056), STAT3 (SC-8019), p-AKT 1/2/3(S473) (SC-7985), STATS (SC-835), Laminin γ2 (SC-393225), COL1A1 (SC-28657), CCL5(RANTES) (SC-514019) CCL20(MIP-3α) (SC-517441), SIRT1 (SC-74465), ChREBP (SC-515922), SREBP1 (SC-366513), DGAT1 (SC-271934), DGAT2 (SC-293211), MICA/B (SC-137242), SLAMF7 (SC-390840), α-tublin (SC-5286), β-actin (SC-47778), FUCA (SC-365496) (the above from Santa Cruz Biotech, USA), p-FAK(Y397) (cat # 611723), FAK (cat # 610088), p27 (cat # 610242) (the above from BD Transduction, USA), p-FAK(Y925) (#3284) p-c-Src(Y416) (#2101), p-STAT3(Y705) (#9145), p70S6K1 (#9202), p-p70S6K1(T389) (#9205), p-STAT5(Y694) (#9314), ACC (#3676), FASN (#3189), CPT1A (#12252), p-ACC(S79) (#11818), HA (#3724), PD-L1 (#13684), PD-1 (#86163), p-ERK1/2(T202/Y204) (#9101s), ERK1/2 (#9102s) (the above from Cell Signaling Tech., USA), pS10p27(S10) (ab62364), human SLAMF6 (ab224201), TIGIT (ab233404), CD34 (ab81289) (the above from Abcam, UK), mouse SLAMF6 (PA5-87823), NKG2D (PA5-102038) (the above from Thermofisher, USA), α-SMA (Sigma Aldrich, A5228), CCL2 (Invitrogen, MA5-17040), and CD155(PVR) (Biolegend, 337601), HA (Biolegend, USA), Strep-HRP(horse-radish peroxidase), StrepMAB-HRP (IBA, USA), AFP (FineTest, FNab00203) were reacted at 4°C for 15 hours. The next day, secondary antibodies were reacted, and development was performed on X-ray film using ECL (Pierce, USA). Anti-TM4SF5C-ter (epitope region of RKKQDTPH^197) and anti-TM4SF5EC2 (CLMNGEWGYHFEDTAGA^130) were custom-made at a professional antibody production company (Pro-Sci, Poway, CA, USA).
(a) Cell extracts were obtained after treating TM4SF5-non-expressing cells (SNU449Cp) and TM4SF5-expressing cells (SNU449T7) with vehicle (DMSO), ST-2-001, or an ST-2-001-based derivative drug at a concentration of 5 µM for 24 hours. (b) Cell extracts were obtained after treating SNU449Cp and SNU449T7 with DMSO, ST-2-001, ST-3-001, ST-3-006, ST-3-007, ST-3-010, or ST-3-011 at a concentration of 5 µM for 24 hours. (c) Cell extracts were obtained after treating SNU449Cp and SNU449T7 with DMSO, ST-2-001, ST-3-006, or ST-3-011 at the given concentrations for 24 hours. (a-c) Using the cell extracts obtained after the drug treatment, Western blotting was performed for signaling factors whose phosphorylation and activity increase in a TM4SF5-expression dependent manner.

[1] = given concentrations, 24 hours (FIG. 9c)
[2] = 5 µM, 24 hours (FIG. 9a-b, blue-lined boxes)

Structure (SMILES)	phosphorylation of some signaling factors [1]	phosphorylation of some signaling factors [2]
COc1ccc(-c2cc(-c3ccc(NC(C)=O)cc3)no2)cc1 [ST-2-001, N-(4-(5-(4-methoxyphenyl)isoxazole-3-yl)phenyl)acetamide]	increased	–
CC(=O)Nc1ccc(-c2cc(-c3ccc(F)cc3)on2)cc1 [ST-3-006, N-(4-(5-(4-fluorophenyl)isoxazole-3-yl)phenyl)acetamide]	increased	increased
COc1ccc(-c2cc(-c3cccc(NC(C)=O)c3)no2)cc1 [ST-3-011, N-(3-(5-(4-methoxyphenyl)isoxazole-3-yl)phenyl)acetamide]	increased	increased
